# EP4711361A1, “NITROGEN-CONTAINING HETEROCYCLIC COMPOUND AND USE THEREOF” (Jiangsu Deyuan Pharmaceutical Co.,Ltd., priority 2023, dated 2024)
# Columns and labels:
# MDR1-MDCKII cells = assay: Permeability test (MDR1-MDCKII monolayer, bidirectional transport); format: in vitro ADME; conditions: 2 µM; for Efflux ratio (ER): ER = Papp (BA)/ Papp (AB), 150 min; for Apparent permeability coefficient (Papp (AB), 10^-6 cm/s): pH 7.40, 2.5 hours, A to B
# Method: (§1) Experimental objective: The permeability and efflux ratio of the compound of the present disclosure were determined using the MDR1-MDCKII monolayer cell model to assess its membrane permeability and potential for P-gp-mediated efflux transport.
# (§2) Experimental protocol: MDR1-MDCKII cells (obtained from the Netherlands Cancer Institute) were seeded in 96-well plates (obtained from Corning) at a cell density of 3.33 × 10^5 cells/mL and cultured for 4 to 7 days to form confluent cell monolayers. Hank's balanced salt solution containing 10 mM HEPES (pH 7.40) was used as the transport buffer. The test compound was evaluated for bidirectional transport at a concentration of 2 µM, with the DMSO concentration in the incubation system maintained below 1%. After adding the samples, the cell plate was incubated at 37±1°C, 5% CO2, and saturated humidity for 2.5 hours. All samples were quantitatively analyzed using the LC-MS/MS method. The apparent permeability coefficient (Papp, cm/s) and efflux ratio (ER) were calculated using the following formula. Apparent permeability coefficient (Papp, cm/s) was calculated using the following formula: Papp = (dCr/dt) x Vr / (A x C0). Herein, dCr/dt represents the cumulative concentration of the compound at the receiving end per unit time (µM/s); Vr is the volume of the solution at the receiving end (with solution volumes at the apical and basolateral ends being 0.075 mL and 0.250 mL, respectively); A is the relative surface area of the cell monolayer (0.143 cm^2); C0 is the initial concentration of the test substance at the dosing end (µM) or the peak area ratio of the reference substance. The efflux ratio was calculated using the following formula: ER = Papp (BA)/ Papp (AB). Table 7: Permeability test results of compounds
# human CYP11B2 = biological target: T1, human CYP11B2 (Homo sapiens, UniProt P19099); assay: In vitro activity assay of monoclonal cells overexpressing human CYP11B2; format: cell-based; conditions: G402 cells overexpressing human CYP11B2; 1 µM 11-deoxycorticosterone, 16 hours; aldosterone by LC-MS/MS
# T1 construct: expressed in transfected cells; host or cells: human renal leiomyoma G402 cells (monoclonal)
# T1 sequence (P19099 25-503): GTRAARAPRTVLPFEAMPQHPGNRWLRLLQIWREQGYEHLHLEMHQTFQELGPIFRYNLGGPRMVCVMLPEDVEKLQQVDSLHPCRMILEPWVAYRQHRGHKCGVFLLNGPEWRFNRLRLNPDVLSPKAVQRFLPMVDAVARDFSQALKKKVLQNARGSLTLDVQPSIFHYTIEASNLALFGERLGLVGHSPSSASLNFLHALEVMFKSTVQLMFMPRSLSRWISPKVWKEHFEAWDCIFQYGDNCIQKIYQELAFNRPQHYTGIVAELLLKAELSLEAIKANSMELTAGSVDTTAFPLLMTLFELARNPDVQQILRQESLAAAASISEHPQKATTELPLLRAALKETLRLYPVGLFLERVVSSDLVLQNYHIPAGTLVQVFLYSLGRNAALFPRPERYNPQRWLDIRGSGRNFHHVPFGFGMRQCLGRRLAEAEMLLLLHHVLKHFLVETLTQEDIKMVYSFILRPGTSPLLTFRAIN
# Method: The human renal leiomyoma G402 cell line overexpressing human CYP11B2 was selected to serve as a compound activity screening system. Table 1: Cell and reagent information
# 2) Compound details: The test compound was prepared as a 10 µM working concentration using DMSO. 3) Experimental procedure
# Day 1: Cells were digested, and human renal leiomyoma G402 cells overexpressing human CYP11B2 were resuspended to 1×10^5 cells/mL, with 100 µL seeded into a 96-well plate.
# (§3) Day 3: The cell supernatant was collected and added to 200 µL of a methanol solution containing internal standards (internal standards: 35 ng/mL ketoprofen or 7.5 ng/mL carbamazepine or 5 ng/mL diphenhydramine or 10 ng/mL tolbutamide). The mixture was vortexed and centrifuged (4000×g, 4°C, 5 minutes). Then, 100 µL of the supernatant was taken and mixed with 100 µL of pure water.
# Ratio = Aldosterone peak area/Internal standard peak area [formula] Control activity% = (Ratiotestcompound/RatioDMSO) × 100% [formula]
# (§4) "Ratio test compound" represents the Ratio values at different concentrations of the test compound.
# (§5) "Ratio DMSO" represents the Ratio value without the addition of the test compound. • X = Log (compound concentration) • Y = Control activity%
# The IC50 of the test compound was determined by fitting to a nonlinear regression equation using XLfit 5.5.0. Table 3: Results for in vitro activity assay of monoclonal cells overexpressing human CYP11B2
# human CYP11B1 = biological target: T2, human CYP11B1 (Homo sapiens, UniProt P15538); assay: In vitro activity assay of monoclonal cells overexpressing human CYP11B1; format: cell-based; conditions: G402 cells overexpressing human CYP11B1; 1 µM 11-deoxycortisol, 16 hours; cortisol by LC-MS/MS
# T2 construct: expressed in transfected cells; host or cells: human renal leiomyoma G402 cells (monoclonal)
# T2 sequence (P15538 25-503): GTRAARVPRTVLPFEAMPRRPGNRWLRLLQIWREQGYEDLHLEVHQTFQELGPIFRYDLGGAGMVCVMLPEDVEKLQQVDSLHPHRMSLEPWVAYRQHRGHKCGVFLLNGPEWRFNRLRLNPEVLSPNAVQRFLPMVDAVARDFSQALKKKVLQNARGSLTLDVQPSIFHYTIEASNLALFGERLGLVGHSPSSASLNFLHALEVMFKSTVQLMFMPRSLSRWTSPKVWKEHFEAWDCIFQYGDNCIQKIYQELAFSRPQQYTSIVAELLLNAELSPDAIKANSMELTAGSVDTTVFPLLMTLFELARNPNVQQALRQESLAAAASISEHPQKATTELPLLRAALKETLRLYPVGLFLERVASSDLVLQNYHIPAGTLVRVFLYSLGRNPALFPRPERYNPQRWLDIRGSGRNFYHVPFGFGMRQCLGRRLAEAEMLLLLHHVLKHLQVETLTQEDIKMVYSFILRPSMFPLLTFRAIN
# Method: The human renal leiomyoma G402 cell line overexpressing human CYP11B1 was selected to serve as a compound selectivity screening system.
# Day 1: Cells were digested, and human renal leiomyoma G402 cells overexpressing CYP11B1 were resuspended to 1×10^5 cells/mL, with 100 µL seeded into a 96-well plate.
# as §3
# Ratio = Cortisol peak area/Internal standard peak area [formula] Control activity% = (Ratiotestcompound/RatioDMSO) × 100% [formula]
# as §4, §5
# The IC50 of the test compound was determined by fitting to a nonlinear regression equation using XLfit 5.5.0. Table 4: Results for in vitro activity assay of monoclonal cells overexpressing human CYP11B1
# in vitro [1] = conditions: rat, plasma
# in vitro [2] = conditions: human, plasma
# [3] = Permeability test (MDR1-MDCKII monolayer, bidirectional transport); format: in vitro ADME; conditions: dog; for efflux ratio at 2.5 h, 2 µM: MDCK-MDR1, pH 7.4, ER = Papp (BA)/ Papp (AB); for Papp A→B at 2.5 h, 2 µM: MDCK-MDR1, pH 7.4, pH 7.40, 2.5 hours, A to B, read-out: Apparent permeability coefficient (Papp (AB), 10^-6 cm/s)
# Method: as §1, §2
# in vitro [4] = conditions: cynomolgus monkey, plasma
# in vivo = conditions: cynomolgus monkey, po, 1 mg/kg
# in vitro [5] = conditions: human, microsomes
# [6] = tested on: patients with resistant hypertension; conditions: cited from earlier work
# [7] = 2 mg dose, patients with resistant hypertension
Structure (SMILES),Efflux ratio (ER) (MDR1-MDCKII cells),"Apparent permeability coefficient (Papp (AB), 10^-6 cm/s) (MDR1-MDCKII cells)",IC50 (human CYP11B2) [nM],IC50 (human CYP11B1) [µM],further results
"CCC(=NOC)NC1CCCc2c(-c3ccc4c(c3)CCC(=O)N4C)cncc21 (single isomer, unassigned) [Compound 005]",0.70,23.1 10^-6 cm/s,19.5,1.42,–
"CCC(=O)NC1CCCc2c(-c3ccc4c(c3)OCC(=O)N4C)cncc21 (single isomer, unassigned) [Compound 010]",–,–,71.5,6.88,–
"CCC(=O)NC1CCCc2c(-c3ccc4c(c3)OCC(=O)N4C)cncc21 (single isomer, unassigned) [Compound 011]",0.89,24.3 10^-6 cm/s,59.7,6.91,–
"Cn1c(=O)ccc2cc(-c3cncc4c3CCC[C@H]4NC(=O)c3ncccc3Cl)ccc21 (single isomer, unassigned) [Compound 014]",–,–,20.6,–,–
"Cc1noc(C)c1C(=O)NC1CCCc2c(-c3ccc4c(ccc(=O)n4C)c3)cncc21 (single isomer, unassigned) [Compound 015]",–,–,31.8,–,–
"CCC(=O)NC1CCCc2c(-c3cc(F)c4c(ccc(=O)n4C)c3)cncc21 (single isomer, unassigned) [Compound 018]",–,–,20.7,3.81,"fraction unbound at 4 h, 2 µM (in vitro [1]): 0.08; fraction unbound at 4 h, 2 µM (in vitro [2]): 0.191; efflux ratio at 2.5 h, 2 µM [3]: 1.32; Papp A→B at 2.5 h, 2 µM [3]: 24.6 ×10⁻⁶ cm/s; fraction unbound at 4 h, 2 µM (in vitro [4]): 0.205; AUC(0-t) at 24 h (in vivo): 7.59 µM·h; Cmax (in vivo): 1310 nM; half-life (in vivo): 321 min; CLint scaled at 1 µM (in vitro [5]): < 8.6 mL/min/kg"
"Cc1noc(C)c1C(=O)NC1CCCc2c(-c3cc4ccc(=O)n(C)c4cc3F)cncc21 (single isomer, unassigned) [Compound 020]",–,–,25.5,1.13,"fraction unbound at 4 h, 2 µM (in vitro [1]): 0.083; fraction unbound at 4 h, 2 µM (in vitro [2]): 0.144; efflux ratio at 2.5 h, 2 µM [3]: 2.47; Papp A→B at 2.5 h, 2 µM [3]: 14 ×10⁻⁶ cm/s; fraction unbound at 4 h, 2 µM (in vitro [4]): 0.097; CLint scaled at 1 µM (in vitro [5]): 12.9 mL/min/kg"
"CCC(=O)NC1CCCc2c(-c3ccc4c(c3)C3CC3C(=O)N4C)cncc21 (single isomer, unassigned) [Compound 025]",–,–,65.5,–,–
"CCC(=O)NC1CCN(C2CCCc3c(-c4ccc5c(ccc(=O)n5C)c4)cncc32)CC1 (single isomer, unassigned) [Compound 030]",–,–,48.7,2.18,–
"CCC(=O)NC1CCCc2c(-c3cc(F)c4c(c3)OCC(=O)N4C)cncc21 (single isomer, unassigned) [Compound 031]",0.89,20.0 10^-6 cm/s,22.6,4.74,–
"CCC(=O)NC1CCCc2c(-c3cc4c(cc3F)N(C)C(=O)CO4)cncc21 (single isomer, unassigned) [Compound 032]",0.86,22.6 10^-6 cm/s,30.1,5.65,–
"CCC(=O)NC1CCCc2c(-c3nc4ccc(=O)n(C)c4s3)cncc21 (single isomer, unassigned) [Compound 041]",–,–,42.2,6.75,–
"CCC(=O)NC1CCCc2c(-c3ccc4c(ccc(=O)n4C)c3Cl)cncc21 (single isomer, unassigned) [Compound 042]",–,–,41,–,–
"CCC(=O)NC1CCOc2c(-c3ccc4c(ccc(=O)n4C)c3)cncc21 (single isomer, unassigned) [Compound 044]",–,–,32.9,19.5,"fraction unbound at 4 h, 2 µM (in vitro [1]): 0.024; fraction unbound at 4 h, 2 µM (in vitro [2]): 0.295; efflux ratio at 2.5 h, 2 µM [3]: 2.46; Papp A→B at 2.5 h, 2 µM [3]: 11 ×10⁻⁶ cm/s; fraction unbound at 4 h, 2 µM (in vitro [4]): 0.336"
"CCC(=O)NC1CCOc2c(-c3cc4ccc(=O)n(C)c4s3)cncc21 (single isomer, unassigned) [Compound 045]",1.30,16.7 10^-6 cm/s,42.7,34.9,–
"CCC(=O)NC1CCOc2c(-c3cc4c(s3)N(C)C(=O)CC4)cncc21 (single isomer, unassigned) [Compound 046]",1.17,18.0 10^-6 cm/s,13.3,1.57,–
"CCC(=O)NC1CCc2c(-c3ccc4c(ccc(=O)n4C)c3)cncc21 (single isomer, unassigned) [Compound 048]",–,–,7.02,2.49,–
CCC(=O)N[C@@H]1CCCc2c(-c3ccc4c(c3)CCC(=O)N4C)cncc21 [Baxdrostat],–,–,–,–,"office systolic and diastolic blood pressure [6, 7]: demonstrated efficacy; safety and tolerability [6, 7]: favorable safety and tolerability profiles; aldosterone secretion levels ([6]; clinical studies): dose-dependent reduction; blood pressure ([6]; clinical studies): dose-dependent reduction; blood pressure reduction ([6]; phase 2 trials): significant blood pressure reduction; cortisol levels ([6]; phase 2 trials): no impact on cortisol levels; elevated blood potassium ([6]; phase 2 trials): rare occurrence of elevated blood potassium; steroid precursor accumulation ([6]; phase 2 trials): absence of steroid precursor accumulation"
CCS(=O)(=O)N1CC(Oc2cncc(-c3ccc4c(c3)OCC(=O)N4C)c2)C1 [Compound 016],–,–,63.6,–,–
